Measured values: ChEMBL document CHEMBL4732174, “Discovery of 6-(7-Nitro-2,1,3-benzoxadiazol-4-ylthio)hexanol Derivatives as Glutathione Transferase Inhibitors with Favorable Selectivity and Tolerated Toxicity” (J Med Chem, 2021)

Legend:
143B [1] = assay: Antitumor activity against human 143B cells xenografted in BALB/c nude mouse assessed as tumor growth inhibition at 5 mg/kg, po administered once daily for 28 consecutive days relative to control; format: functional; conditions: 672 h, time 28 day, read-out: TGI
[2] = target: T1, Glutathione S-transferase P (Homo sapiens, UniProt P09211); assay: Inhibition of GSTP1-1 (unknown origin) using reduced GSH and CDNB as substrate incubated for 10 mins followed by substrate addition by microplate reader analysis
Target sequence in this assay (P09211 whole entry): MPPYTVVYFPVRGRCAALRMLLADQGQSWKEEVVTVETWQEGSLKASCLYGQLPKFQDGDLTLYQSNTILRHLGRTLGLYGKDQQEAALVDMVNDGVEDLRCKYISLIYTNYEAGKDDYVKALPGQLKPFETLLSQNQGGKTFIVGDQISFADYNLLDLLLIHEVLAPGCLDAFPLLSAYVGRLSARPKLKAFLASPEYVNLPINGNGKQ

[3] = rat, in vivo, po, 80 mg/kg, 48 h
Description: Plasma clearance in Sprague-Dawley rat at 80 mg/kg, po administered as single dose measured upto 48 hrs by LC-MS/MS analysis

[4] = rat, in vivo, po, 80 mg/kg, 48 h; remark: listed apart in the source
Description: AUC (0 to infinity) in Sprague-Dawley rat at 80 mg/kg, po administered as single dose measured upto 48 hrs by LC-MS/MS analysis

in vivo [5] = conditions: Sprague-Dawley, rat, po, 80 mg/kg
Description: Tmax in Sprague-Dawley rat at 80 mg/kg, po administered as single dose measured upto 48 hrs by LC-MS/MS analysis

HOS = assay: Antiproliferative activity against human HOS cells assessed as inhibition of cell proliferation incubated for 72 hrs by MTT assay; format: functional, cell-based
143B [6] = assay: Induction of cell cycle arrest in human 143B cells assessed as accumulation at G2 phase at 2.5 uM incubated for 48 hrs by propidium iodide staining based flow cytometry (reference value: 1.35 %); format: functional
[7] = Toxicity in BALB/c nude mouse xenografted with human 143B cells assessed as cellular inflammation in liver at 5 to 20 mg/kg, po administered once daily for 28 consecutive days by hematoxylin-eosin staining based assay; format: organism-based; conditions: in vivo, 672 h, dose 5-20 mg/kg, time 28 day
[8] = Toxicity in BALB/c nude mouse xenografted with human 143B cells assessed as body weight loss at 5 mg/kg, po administered once daily for 28 consecutive days and measured every 3 days; format: organism-based; conditions: in vivo, 672 h, time 28 day
[9] = Toxicity in BALB/c nude mouse xenografted with human 143B cells assessed as cellular inflammation in kidney at 5 to 20 mg/kg, po administered once daily for 28 consecutive days by hematoxylin-eosin staining based assay; format: organism-based; conditions: in vivo, 672 h, dose 5-20 mg/kg, time 28 day
[10] = Toxicity in BALB/c nude mouse xenografted with human 143B cells assessed as cellular inflammation in heart at 5 to 20 mg/kg, po administered once daily for 28 consecutive days by hematoxylin-eosin staining based assay; format: organism-based; conditions: in vivo, 672 h, dose 5-20 mg/kg, time 28 day
143B [11] = assay: Induction of apoptosis in human 143B cells assessed as apoptotic cells at 5 uM incubated for 24 hrs by Annexin V-FITC/PI double staining based flow cytometric analysis (reference value: 3.9%); format: functional
in vivo [12] = conditions: Sprague-Dawley, rat, po, 80 mg/kg; remark: listed apart in the source
Description: Terminal half life in Sprague-Dawley rat at 80 mg/kg, po administered as single dose measured upto 48 hrs by LC-MS/MS analysis

L02 = assay: Cytotoxicity against human L02 cells assessed as reduction in cell viability incubated for 72 hrs by MTT assay; format: cell-based; conditions: L02, 72 h
[13] = target: T1, Glutathione S-transferase P; conditions: dose 0.1-5 µM
Target sequence in this assay (P09211 2-210 limits assumed): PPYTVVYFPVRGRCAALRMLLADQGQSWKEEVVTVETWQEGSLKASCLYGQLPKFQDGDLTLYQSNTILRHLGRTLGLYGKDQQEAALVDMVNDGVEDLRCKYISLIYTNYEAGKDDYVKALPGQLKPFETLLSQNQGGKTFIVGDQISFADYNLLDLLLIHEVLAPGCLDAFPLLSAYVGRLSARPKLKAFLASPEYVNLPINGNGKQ

143B [14] = assay: Antiproliferative activity against human 143B cells assessed as inhibition of cell proliferation incubated for 72 hrs by MTT assay; format: functional, cell-based
[15] = Toxicity in BALB/c nude mouse xenografted with human 143B cells assessed as spleen edema at 5 to 20 mg/kg, po administered once daily for 28 consecutive days by hematoxylin-eosin staining based assay; format: organism-based; conditions: in vivo, 672 h, dose 5-20 mg/kg, time 28 day
[16] = target: T2, Glutathione S-transferase Mu 2 (Homo sapiens, UniProt P28161); assay: Inhibition of GSTM2-2 (unknown origin) using reduced GSH and CDNB as substrate incubated for 10 mins followed by substrate addition by microplate reader analysis
T2 sequence (P28161 whole entry): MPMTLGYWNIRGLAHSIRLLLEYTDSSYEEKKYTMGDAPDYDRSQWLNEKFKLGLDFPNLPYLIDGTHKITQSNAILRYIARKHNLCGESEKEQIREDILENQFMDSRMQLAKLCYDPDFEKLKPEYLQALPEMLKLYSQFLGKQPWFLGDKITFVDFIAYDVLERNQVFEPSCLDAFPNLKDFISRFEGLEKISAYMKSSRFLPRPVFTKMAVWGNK

[17] = MRT (0 to t) in Sprague-Dawley rat at 80 mg/kg, po administered as single dose measured upto 48 hrs by LC-MS/MS analysis; conditions: in vivo
143B [18] = assay: Induction of cell cycle arrest in human 143B cells assessed as accumulation at S phase at 5 uM incubated for 48 hrs by propidium iodide staining based flow cytometry (reference value: 32.03 %); format: functional
[19] = Toxicity in BALB/c nude mouse xenografted with human 143B cells assessed as necrosis in liver at 5 to 20 mg/kg, po administered once daily for 28 consecutive days by hematoxylin-eosin staining based assay; format: organism-based; conditions: in vivo, 672 h, dose 5-20 mg/kg, time 28 day
[20] = Toxicity in BALB/c nude mouse xenografted with human 143B cells assessed as kidney edema at 5 to 20 mg/kg, po administered once daily for 28 consecutive days by hematoxylin-eosin staining based assay; format: organism-based; conditions: in vivo, 672 h, dose 5-20 mg/kg, time 28 day
[21] = Toxicity in BALB/c nude mouse xenografted with human 143B cells assessed as lung edema at 5 to 20 mg/kg, po administered once daily for 28 consecutive days by hematoxylin-eosin staining based assay; format: organism-based; conditions: in vivo, 672 h, dose 5-20 mg/kg, time 28 day
143B [22] = assay: Induction of cell cycle arrest in human 143B cells assessed as accumulation at G2 phase at 10 uM incubated for 48 hrs by propidium iodide staining based flow cytometry (reference value: 1.35 %); format: functional
[23] = Toxicity in BALB/c nude mouse xenografted with human 143B cells assessed as cellular inflammation in spleen at 5 to 20 mg/kg, po administered once daily for 28 consecutive days by hematoxylin-eosin staining based assay; format: organism-based; conditions: in vivo, 672 h, dose 5-20 mg/kg, time 28 day
[24] = Toxicity in BALB/c nude mouse xenografted with human 143B cells assessed as necrosis in spleen at 5 to 20 mg/kg, po administered once daily for 28 consecutive days by hematoxylin-eosin staining based assay; format: organism-based; conditions: in vivo, 672 h, dose 5-20 mg/kg, time 28 day
143B [25] = assay: Induction of cell cycle arrest in human 143B cells assessed as accumulation at G1 phase at 5 uM incubated for 48 hrs by propidium iodide staining based flow cytometry (reference value: 66.62 %); format: functional
143B [26] = assay: Induction of cell cycle arrest in human 143B cells assessed as accumulation at S phase at 2.5 uM incubated for 48 hrs by propidium iodide staining based flow cytometry (reference value: 32.03 %); format: functional
[27] = Toxicity in BALB/c nude mouse xenografted with human 143B cells assessed as cellular inflammation in lung at 5 to 20 mg/kg, po administered once daily for 28 consecutive days by hematoxylin-eosin staining based assay; format: organism-based; conditions: in vivo, 672 h, dose 5-20 mg/kg, time 28 day
143B [28] = assay: Induction of cell cycle arrest in human 143B cells assessed as accumulation at G2 phase at 5 uM incubated for 48 hrs by propidium iodide staining based flow cytometry (reference value: 1.35 %); format: functional
143B [29] = assay: Induction of cell cycle arrest in human 143B cells assessed as accumulation at G1 phase at 10 uM incubated for 48 hrs by propidium iodide staining based flow cytometry (reference value: 66.62 %); format: functional

IC50 [2]: 160 nM | CL [3]: 64.2 mL/min/kg | AUC [4]: 6514.48 ng·h/mL | Tmax at 48 h (in vivo [5]): 2.33 h | half-life at 48 h (in vivo [12]): 7.28 h | Kinact [13]: 0.17 min⁻¹ | IC50 [16]: 90 nM | MRT last at 48 h [17]: 6.35 h
SMILES: CN(C)CCCNC(=O)CCC(=O)OCCCCCCSc1ccc([N+](=O)[O-])c2nonc12
inhibition in vivo at 5 mg/kg (143B [1]): 46.4% | IC50 (HOS): 1850 nM | Activity (143B [6]): 9.46% | Activity [7]: Non-Toxic | Activity [8]: Non-Toxic | Activity [9]: Non-Toxic | Activity [10]: Non-Toxic | Activity (143B [11]): 74% | IC50 (L02): 4230 nM | IC50 (143B [14]): 1180 nM | Activity [15]: Non-Toxic | Activity (143B [18]): 34.94% | Activity [19]: Non-Toxic | Activity [20]: Non-Toxic | Activity [21]: Non-Toxic | Activity (143B [22]): 21.01% | Activity [23]: Non-Toxic | Activity [24]: Non-Toxic | Activity (143B [25]): 49.82% | Activity (143B [26]): 40.75% | Activity [27]: Non-Toxic | Activity (143B [28]): 15.24% | Activity (143B [29]): 48.67%
